The values below are quoted from earlier work in publication PMC9851200, “Multiparameter phenotypic screening for endogenous TFEB and TFE3 translocation identifies novel chemical series modulating lysosome function” (Autophagy, 2022).

Parameters in all cases: method as in original PKIS2 published data
For data set [1], the target named is kinases (KINOMEscan panel) (Homo sapiens, UniProt Q9UPE1). Conditions: SRPK3; Published KINOMEscan; ref original PKIS2 published data; cited from earlier work.
kinases (KINOMEscan panel) (Homo sapiens, UniProt Q9UPE1), sequence (Q9UPE1 whole entry): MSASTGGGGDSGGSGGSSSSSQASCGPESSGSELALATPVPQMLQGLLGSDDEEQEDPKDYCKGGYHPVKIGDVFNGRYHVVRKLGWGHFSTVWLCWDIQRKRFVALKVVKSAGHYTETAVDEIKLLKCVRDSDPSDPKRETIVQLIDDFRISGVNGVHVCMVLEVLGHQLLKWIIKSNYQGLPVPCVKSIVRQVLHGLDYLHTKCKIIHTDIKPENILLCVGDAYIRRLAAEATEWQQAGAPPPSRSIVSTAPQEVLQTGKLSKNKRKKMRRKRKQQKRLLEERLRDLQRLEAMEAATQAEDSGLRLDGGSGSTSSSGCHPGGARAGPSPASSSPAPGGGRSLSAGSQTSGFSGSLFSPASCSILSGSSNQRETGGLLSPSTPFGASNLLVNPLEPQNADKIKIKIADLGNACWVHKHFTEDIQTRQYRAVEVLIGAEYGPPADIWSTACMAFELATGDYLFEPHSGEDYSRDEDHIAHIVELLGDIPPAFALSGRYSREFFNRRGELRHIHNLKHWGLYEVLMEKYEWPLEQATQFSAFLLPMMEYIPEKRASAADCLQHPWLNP
Data set [2] addresses T1, kinases (KINOMEscan panel) (Homo sapiens, UniProt Q8WXR4).
T1 sequence (Q8WXR4 1-1341): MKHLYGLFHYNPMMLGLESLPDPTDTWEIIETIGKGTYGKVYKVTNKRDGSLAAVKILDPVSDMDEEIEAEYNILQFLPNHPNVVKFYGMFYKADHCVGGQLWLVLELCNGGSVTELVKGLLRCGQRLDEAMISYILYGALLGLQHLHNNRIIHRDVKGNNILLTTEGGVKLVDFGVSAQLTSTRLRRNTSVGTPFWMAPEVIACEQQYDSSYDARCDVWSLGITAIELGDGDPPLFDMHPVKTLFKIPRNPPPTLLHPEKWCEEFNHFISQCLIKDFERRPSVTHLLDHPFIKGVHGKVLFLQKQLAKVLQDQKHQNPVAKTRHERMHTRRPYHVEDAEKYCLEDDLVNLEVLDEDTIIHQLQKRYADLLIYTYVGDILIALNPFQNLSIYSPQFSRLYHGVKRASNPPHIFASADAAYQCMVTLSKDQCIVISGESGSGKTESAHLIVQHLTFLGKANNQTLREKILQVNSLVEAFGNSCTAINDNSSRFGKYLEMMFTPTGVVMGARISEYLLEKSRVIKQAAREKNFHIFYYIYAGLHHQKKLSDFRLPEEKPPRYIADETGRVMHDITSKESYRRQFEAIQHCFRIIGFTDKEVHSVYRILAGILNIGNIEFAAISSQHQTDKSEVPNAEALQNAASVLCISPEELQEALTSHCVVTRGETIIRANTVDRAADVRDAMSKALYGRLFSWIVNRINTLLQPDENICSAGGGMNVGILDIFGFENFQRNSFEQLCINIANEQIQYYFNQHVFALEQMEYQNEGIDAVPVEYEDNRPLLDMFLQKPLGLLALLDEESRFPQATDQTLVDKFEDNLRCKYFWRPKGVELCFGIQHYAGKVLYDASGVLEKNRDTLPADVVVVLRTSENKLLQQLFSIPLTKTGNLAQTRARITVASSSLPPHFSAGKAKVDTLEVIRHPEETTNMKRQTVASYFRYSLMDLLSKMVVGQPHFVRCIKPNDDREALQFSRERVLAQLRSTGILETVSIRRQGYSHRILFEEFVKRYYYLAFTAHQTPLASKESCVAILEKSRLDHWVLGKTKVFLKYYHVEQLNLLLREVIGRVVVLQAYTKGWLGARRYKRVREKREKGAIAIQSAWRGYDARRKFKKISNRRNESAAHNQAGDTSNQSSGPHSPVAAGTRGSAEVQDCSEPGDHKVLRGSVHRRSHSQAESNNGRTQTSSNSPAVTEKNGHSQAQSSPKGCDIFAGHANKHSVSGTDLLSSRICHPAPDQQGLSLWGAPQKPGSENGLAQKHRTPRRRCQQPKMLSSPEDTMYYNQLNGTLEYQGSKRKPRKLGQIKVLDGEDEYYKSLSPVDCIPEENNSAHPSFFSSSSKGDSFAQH
Conditions: MYO3B; Published KINOMEscan; ref original PKIS2 published data; cited from earlier work.

For data set [3], the target named is kinases (KINOMEscan panel) (Homo sapiens, UniProt P42338). Conditions: PIK3CB; Published KINOMEscan; ref original PKIS2 published data; cited from earlier work.
kinases (KINOMEscan panel) (Homo sapiens, UniProt P42338), sequence (P42338 whole entry): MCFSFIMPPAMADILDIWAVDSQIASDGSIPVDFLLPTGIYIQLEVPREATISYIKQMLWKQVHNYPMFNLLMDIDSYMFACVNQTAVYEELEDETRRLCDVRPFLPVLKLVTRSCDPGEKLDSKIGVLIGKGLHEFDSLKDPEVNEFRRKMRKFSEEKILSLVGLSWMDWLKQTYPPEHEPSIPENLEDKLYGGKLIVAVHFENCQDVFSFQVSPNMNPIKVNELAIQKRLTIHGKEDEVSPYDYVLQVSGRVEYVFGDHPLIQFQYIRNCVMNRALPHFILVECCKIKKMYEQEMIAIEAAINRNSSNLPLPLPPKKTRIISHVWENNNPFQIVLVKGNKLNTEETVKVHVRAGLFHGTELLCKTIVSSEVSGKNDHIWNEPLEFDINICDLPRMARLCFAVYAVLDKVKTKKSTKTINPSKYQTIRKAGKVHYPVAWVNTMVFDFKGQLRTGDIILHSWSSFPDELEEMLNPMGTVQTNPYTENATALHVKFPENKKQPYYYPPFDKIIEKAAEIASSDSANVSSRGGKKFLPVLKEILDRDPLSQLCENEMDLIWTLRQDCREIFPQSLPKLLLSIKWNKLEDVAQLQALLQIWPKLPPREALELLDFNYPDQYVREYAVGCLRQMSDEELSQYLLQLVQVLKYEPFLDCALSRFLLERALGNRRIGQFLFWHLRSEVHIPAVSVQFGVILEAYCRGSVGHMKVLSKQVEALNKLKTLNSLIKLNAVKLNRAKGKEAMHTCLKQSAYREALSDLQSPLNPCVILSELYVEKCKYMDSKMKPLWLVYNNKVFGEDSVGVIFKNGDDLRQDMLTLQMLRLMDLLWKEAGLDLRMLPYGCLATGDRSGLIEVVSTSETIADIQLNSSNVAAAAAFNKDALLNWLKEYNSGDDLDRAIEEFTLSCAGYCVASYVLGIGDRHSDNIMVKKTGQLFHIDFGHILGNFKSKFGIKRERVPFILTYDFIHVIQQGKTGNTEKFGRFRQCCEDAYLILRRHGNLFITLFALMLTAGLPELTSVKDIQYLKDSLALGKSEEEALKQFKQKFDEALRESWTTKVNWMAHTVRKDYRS
Data set [4] has as its target T2, kinases (KINOMEscan panel) (Homo sapiens, UniProt O15146).
T2 sequence (O15146 24-869): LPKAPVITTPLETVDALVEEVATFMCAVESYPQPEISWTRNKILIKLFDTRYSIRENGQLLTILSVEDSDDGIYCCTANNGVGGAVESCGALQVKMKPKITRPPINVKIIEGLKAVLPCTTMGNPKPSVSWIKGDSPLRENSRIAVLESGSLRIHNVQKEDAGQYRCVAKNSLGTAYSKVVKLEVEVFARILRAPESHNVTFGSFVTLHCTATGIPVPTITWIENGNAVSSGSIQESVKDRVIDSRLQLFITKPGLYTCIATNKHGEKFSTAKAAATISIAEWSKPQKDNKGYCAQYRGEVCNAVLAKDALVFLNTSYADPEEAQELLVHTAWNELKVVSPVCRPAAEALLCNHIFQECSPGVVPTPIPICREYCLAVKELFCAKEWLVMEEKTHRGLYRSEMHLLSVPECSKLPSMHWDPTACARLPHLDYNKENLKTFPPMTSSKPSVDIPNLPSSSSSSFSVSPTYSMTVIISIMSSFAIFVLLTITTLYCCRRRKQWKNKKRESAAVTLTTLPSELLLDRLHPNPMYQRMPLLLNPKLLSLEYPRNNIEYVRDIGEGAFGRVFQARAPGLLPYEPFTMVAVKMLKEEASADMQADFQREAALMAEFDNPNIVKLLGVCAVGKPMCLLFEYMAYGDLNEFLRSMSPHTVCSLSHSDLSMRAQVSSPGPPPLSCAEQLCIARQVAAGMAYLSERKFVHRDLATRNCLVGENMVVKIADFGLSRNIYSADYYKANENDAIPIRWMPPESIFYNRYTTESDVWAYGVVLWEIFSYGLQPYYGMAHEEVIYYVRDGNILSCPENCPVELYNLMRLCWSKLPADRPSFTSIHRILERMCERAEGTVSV
As to conditions: MUSK; Published KINOMEscan; ref original PKIS2 published data; cited from earlier work.

Data set [5] deals with T3, kinases (KINOMEscan panel) (Homo sapiens, UniProt Q16566).
T3 sequence (Q16566 1-473): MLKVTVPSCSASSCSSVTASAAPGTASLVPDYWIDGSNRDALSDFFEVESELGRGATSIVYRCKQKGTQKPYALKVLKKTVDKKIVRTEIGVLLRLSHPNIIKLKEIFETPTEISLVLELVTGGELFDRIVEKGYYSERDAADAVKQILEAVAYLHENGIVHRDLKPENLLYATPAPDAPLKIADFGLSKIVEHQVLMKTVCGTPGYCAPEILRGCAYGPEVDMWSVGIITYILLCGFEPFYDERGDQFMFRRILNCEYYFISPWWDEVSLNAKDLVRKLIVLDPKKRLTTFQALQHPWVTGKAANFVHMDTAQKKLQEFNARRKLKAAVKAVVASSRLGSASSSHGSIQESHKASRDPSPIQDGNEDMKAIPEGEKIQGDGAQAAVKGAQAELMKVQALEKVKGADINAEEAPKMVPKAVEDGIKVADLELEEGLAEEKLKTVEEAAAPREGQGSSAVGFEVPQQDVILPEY
Conditions: CAMK4; Published KINOMEscan; ref original PKIS2 published data; cited from earlier work.

Take `Cc1cccc(-c2nc(Nc3ccncc3)c3ccccc3n2)n1` [NK215]: in data set [1], the “KINOMEscan SRPK3” value is 15. In addition, the “KINOMEscan MYO3B” value in data set [2] is 17. Also, in data set [3], the “KINOMEscan PIK3CB” value is 0. Also, the “KINOMEscan MUSK” value in data set [4] is 17. The “KINOMEscan CAMK4” value in data set [5] is 47.
